Data as given in patent US20050032863A1, “Method of treating or preventing central nervous system disorders with compounds having selectivity for the alpha 3 subunit of the benzodiazepine receptor” (priority 2003, published 2005).
pEC50: −log10 of the molar value. Values joined by “and” are separate entries in the source; they are usually repeats but may differ in a detail not shown here. Equal values may be shown once. “Also recorded” adds a separate entry of the source.

Legend:
[1] = target: T1, recombinant rat α5β2γ2 GABAA receptors (Rattus norvegicus, UniProt P19969); experiment: Whole-cell patch-clamp, modulation of GABA (EC20)-induced currents in transfected HEK 293 cells, α5β2γ2; format: cell-based
T1 construct: expressed in transfected cells; host or cells: HEK 293
Procedure: (§1) For electrophysiological recording HEK-293 cells were passaged and replated on 12-mm glass coverslips located in 9.6-cm plastic dishes filled with 10 ml of Minimum Essential Medium (MEM, Gibco) supplemented with 158 mg/l sodium bicarbonate, 2 mM glutamine (Gibco), 100 U/ml penicillin-streptomycin (Gibco), and 10% foetal calf serum (Gibco). Cultures were maintained at 37° C. in a humidified […]/5% CO2 atmosphere for 2-3 days.
(§2) Transfection with recombinant rat GABAA receptors was carried out as described in detail (Korpi and Lüddens, 1993, Lüddens and Korpi, 1995b). Briefly, HEK 293 cells were transfected in triple combinations using the phosphate precipitation method with rat GABAA receptor cDNAs in eukaryotic expression vectors (Pritchett, 1990) for the α, β and γ subunits. For optimal receptor expression, final concentrations (μg vector DNA per 9.6 cm tissue culture plate) were: α1, 2; α2 4.8; α3, 1.2; α4, 10; α5, 0.8; β2, 0.4; and γ2S, 0.3. The γ2S variant is abbreviated γ2 in the remainder of the text. To identify transfected cells all subunit combinations were co-transfected with 1 μg per plate of pNI-EGFP.
(§3) Two days after transfection single coverslips containing HEK 293 cells were placed in a recording chamber mounted on the movable stage of a fluorescence microscope (Olympus IX70) and perfused with a defined saline solution containing (in mM): 130 NaCl, 5.4 KCl, 2 CaCl2, 2 MgSO4, 10 glucose, 5 sucrose, and 10 HEPES (free acid), pH adjusted to 7.35 with about 35 mM NaOH. Transfected cells were identified by their green fluorescence due to the expression of the pNI-EGFP vector and ligand-mediated membrane currents of these cells were studied in the whole-cell configuration of the patch-clamp technique (Hamil et al., 1981). Patch-clamp pipettes were pulled from hard borosilicate capillary glass (0.5 mm ID, 1.5 mm OD, Vitrex, Science Products GmbH, Hofheim, Germany) using a horizontal puller (Sutter Instruments, CA, Model P-97) in a multi-stage process.
(§4) Seal resistances >1 GΩ were routinely obtained by applying gentle suction to the pipettes. Membrane rupture was monitored electrically as an increase in capacity. Pipette capacitance, membrane capacitance, and series resistance were electronically compensated to achieve minimal capacitative transients. A series resistance compensation of >60% was regularly used.
(§5) In all cells recorded the presence of the γ2 subunit in the heteropentamere was monitored by the application of 1 μM zolpidem plus the EC20 of GABA before testing the experimental drugs.
(§6) Responses of the cells were recorded by a patch-clamp amplifier (EPC-8, HEKA-Electronic, Lambrecht, Germany) in conjunction with a standard personal computer and the pClamp 8.1 software package (Axon Instruments, Foster City, Calif.). The standard holding-potential for the cells was −40 mV. Whole cell currents were low-pass filtered by an eight-pole Bessel filter at 5 or 3 kHz before being digitised by a Digidata 1322A interface (Axon Instruments, Foster City, Calif.) and recorded by the computer at a sampling rate of at least […].
(§7) Efficacy, potency, and GABAA receptor a subunit specificity of the new compound ELB139 was tested with the whole cell configuration of the patch-clamp technique by applying increasing drug concentration together with GABA of the approximate EC20 on green fluorescing cells. BZ binding site specificity of the new compound was tested on the same cells in an identical experimental setting with additionally applying 10 μM Ro15-1788.

locomotor activity = conditions: open field test and different animal models of anxiety; cited from earlier work
[2] = target: T2, recombinant rat α2β2γ2 GABAA receptors (Rattus norvegicus, UniProt P23576); experiment: Whole-cell patch-clamp, modulation of GABA (EC20)-induced currents in transfected HEK 293 cells, α2β2γ2; format: cell-based; conditions: α2β2γ2
T2 construct: expressed in transfected cells; host or cells: HEK 293
Procedure: as §1, §2, §3, §4, §5, §6, §7

[3] = target: T3, recombinant rat α3β2γ2 GABAA receptors (Rattus norvegicus, UniProt P20236); experiment: Whole-cell patch-clamp, modulation of GABA (EC20)-induced currents in transfected HEK 293 cells, α3β2γ2; format: cell-based
T3 construct: expressed in transfected cells; host or cells: HEK 293
Procedure: as §1, §2, §3, §4, §5, §6, §7

[4] = system: female Wistar rats, MK-801-induced stereotypies, hyperactivity and ataxia; experiment: MK-801-induced psychosis-related behaviour and reversibility by flumazenil (Example 7); format: in vivo, rat; conditions: for effect on other stereotypies when flumazenil is added: 30 mg/kg p.o. + flumazenil 5 mg/kg
Procedure: Apart from the haloperidol rats which received haloperidol 30 minutes and MK-801 10 minutes prior to the test, the other test groups received haloperidol, ELB139 or vehicle 60 minutes prior to test, saline or flumazenil 20 minutes prior to test and MK-801 10 minutes prior to test.
The behaviour induced by the NMDA antagonist MK-801 is generally accepted as a rat model of psychosis. MK-801 induces stereotypies, hyperactivity and ataxia in rats after intraperitoneal administration.
Locomotor activity of the rats is recorded by the MotiTest Apparatus (TSE, Bad Homburg, Germany). The test area consisted of a squared arena (45×45 cm) with protective plexiglass walls (20 cm of height) where rats could freely move. Horizontal movements were recorded by 32 infrared photocells arranged along the bottom of each wall of the arena. Vertical movements (rearings) were recorded by a horizontal row of 32 infrared photocells 12 cm above the floor. The following parameters were measured by the computer program “ActiMot” (TSE, Bad Homburg, Germany): • 1. active time [s] • 2. total distance travelled [m]
Stereotypies, divided into stereotyped sniffing and other stereotypies, and ataxia are scored by the experimenter every five minutes for one hour (12 intervals) according to the method described by Andiné et al. (1999). The scores of the 12 intervals are added for each parameter.
The day of experiment the female rats are placed in the laboratory and receive the test compound, the reference substance or vehicle at the appropriate time prior to test. […]
At the beginning of the test the rats are placed in the centre of the squared arena of the MotiTest apparatus. Behaviour of the rats is recorded for one hour. After each run animals are removed and the boxes thoroughly cleaned and dried.

[5] = applied with approximate GABA EC20, read-out: EC50 (ELB139)
[6] = 30 mg/kg p.o. + flumazenil 5 mg/kg i.p., second trial

T3 sequence (P20236 29-493): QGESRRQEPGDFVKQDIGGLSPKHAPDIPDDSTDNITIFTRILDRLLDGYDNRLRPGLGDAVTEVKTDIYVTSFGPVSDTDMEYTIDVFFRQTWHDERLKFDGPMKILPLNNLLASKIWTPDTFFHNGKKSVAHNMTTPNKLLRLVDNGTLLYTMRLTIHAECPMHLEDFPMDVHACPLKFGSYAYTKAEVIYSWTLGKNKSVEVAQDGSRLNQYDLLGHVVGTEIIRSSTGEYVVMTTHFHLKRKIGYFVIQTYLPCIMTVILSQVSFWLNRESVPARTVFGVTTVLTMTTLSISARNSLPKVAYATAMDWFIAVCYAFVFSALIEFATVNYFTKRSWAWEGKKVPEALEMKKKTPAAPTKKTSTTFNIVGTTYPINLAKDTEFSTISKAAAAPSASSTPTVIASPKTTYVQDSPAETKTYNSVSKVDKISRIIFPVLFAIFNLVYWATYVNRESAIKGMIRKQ
T1 sequence (P19969 32-464 limits assumed): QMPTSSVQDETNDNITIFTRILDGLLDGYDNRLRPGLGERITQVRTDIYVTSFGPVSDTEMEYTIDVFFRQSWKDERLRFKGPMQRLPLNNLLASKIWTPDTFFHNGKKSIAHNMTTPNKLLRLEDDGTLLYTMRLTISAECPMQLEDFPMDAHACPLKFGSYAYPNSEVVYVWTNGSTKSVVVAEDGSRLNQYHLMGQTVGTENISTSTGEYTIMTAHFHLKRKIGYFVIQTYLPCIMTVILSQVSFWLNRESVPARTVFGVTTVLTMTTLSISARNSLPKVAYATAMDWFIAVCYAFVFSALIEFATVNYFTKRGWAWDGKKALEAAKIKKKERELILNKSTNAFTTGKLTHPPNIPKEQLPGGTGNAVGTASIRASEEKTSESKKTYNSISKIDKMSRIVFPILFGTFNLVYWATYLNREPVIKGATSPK
T2 sequence (P23576 29-451): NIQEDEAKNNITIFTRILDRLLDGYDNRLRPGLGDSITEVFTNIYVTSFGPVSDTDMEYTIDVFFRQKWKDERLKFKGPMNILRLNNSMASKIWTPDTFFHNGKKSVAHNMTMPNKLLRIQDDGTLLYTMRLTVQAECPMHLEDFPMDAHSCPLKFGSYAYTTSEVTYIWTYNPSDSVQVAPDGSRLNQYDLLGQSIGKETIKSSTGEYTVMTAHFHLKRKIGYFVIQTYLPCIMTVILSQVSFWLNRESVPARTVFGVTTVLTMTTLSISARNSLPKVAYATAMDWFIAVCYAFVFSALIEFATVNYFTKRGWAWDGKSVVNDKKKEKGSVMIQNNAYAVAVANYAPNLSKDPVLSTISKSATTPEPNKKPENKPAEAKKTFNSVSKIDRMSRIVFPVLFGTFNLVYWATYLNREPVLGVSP

With `O=C1N=C(N2CCCCC2)CN1c1ccc(Cl)cc1` [ELB139, 1-(4-chlorophenyl)-4-piperidinoimidazolin-2-one] the pEC50 [1, 5] was 5.44, the “effect of 10 μM Ro15-1788 on the current enhancement by the compound” value ([1]; co-applied 10 μM Ro15-1788 (flumazenil)) was “completely abolished” and the “maximal positive modulation of GABA-induced current” value ([1]; maximum at 30 μM (ELB139), at 1 μM (diazepam)) was 1.4±0.06 fold and 1.4 fold. For the same compound, the “Potentiation* (ELB139)” value ([1]; with GABA EC20, graphically determined) was 1.4 ± 0.06, the locomotor activity (locomotor activity) was “did not show a significant reduction” and the “modulation of GABA-induced currents (in words)” value ([2]; ELB139 0.01-30 μM) was “failed to evoke agonistic or inverse agonistic modulation; also recorded: no agonistic effect; also recorded: not at all active”. The pEC50 [2, 5] was less than 4.52, the “concentrations at which positive current modulation was observable” value ([3]; α3-containing receptors) was “above 30 nM” and the “highest efficacy / maximal stimulation of GABA-induced current” value ([3]; α3-containing receptors, ELB139 at concentrations above 0.3 μM, diazepam at 1 μM) was 1.3±0.07 fold and 1.3 fold. For the same compound, the “effect of 10 μM Ro15-1788 on the current enhancement by the compound” value ([3]; α3β2γ2, co-applied 10 μM Ro15-1788 (flumazenil)) was “completely abolished”, the “Potentiation* (ELB139)” value ([3]; α3β2γ2, with GABA EC20, graphically determined) was 1.3 ± 0.07 and the pEC50 ([3]; α3β2γ2, with GABA EC20, value marked * = graphically determined, read-out: EC50 (ELB139)) was 7.22. For the same compound, the “effect on distance travelled when flumazenil is added” value ([4]; 30 mg/kg p.o. + flumazenil 5 mg/kg i.p., all trials and sum) was “significantly reversed”, the “effect on activity when flumazenil is added” value ([4]; 30 mg/kg p.o. + flumazenil 5 mg/kg i.p., both tests and sum) was “significantly reversed” and the “effect on stereotyped sniffing when flumazenil is added” value ([4]; 30 mg/kg p.o. + flumazenil 5 mg/kg i.p., first trial and sum of both trials) was “significantly reversed”. The “effect on stereotyped sniffing when flumazenil is added” value [4, 6] was “distinctly antagonised”, the “reducing effect on ataxia when flumazenil is added” value [4, 6] was “reversed” and the “reversing effect of flumazenil on the ataxia effect” value ([4]; 30 mg/kg p.o. + flumazenil 5 mg/kg i.p., sum of both trials) was “marginal”. The “effect on other stereotypies when flumazenil is added” value (from here on “effect on other stereotypies”) ([4]; first trial) was “rather amplified”, the “effect on other stereotypies” value ([4]; second trial) was “distinctly reversed” and the “effect on other stereotypies” value ([4]; sum of both trials) was “no change”. For the same compound, the “MK-801-induced increase of the distance travelled, whole time curve” value ([4]; 30 mg/kg p.o., both tests and sum) was “significantly reduced”, the MK-801-induced stereotyped sniffing ([4]; 30 mg/kg p.o., discrete trials and sum of both trials) was “significantly reversed” and the MK-801-induced other stereotypies ([4]; 30 mg/kg p.o., first trial) was “slightly reduced”. For the same compound, the MK-801-induced ataxia ([4]; 30 mg/kg p.o., first trial (November 2003)) was “hardly affected”, the “activity induced by MK-801, whole time curve” value ([4]; 30 mg/kg p.o., first trial and sum of both tests) was “significantly reduced” and the “activity induced by MK-801, whole time curve” value ([4]; 30 mg/kg p.o., second trial) was “distinctly reduced”. The MK-801-induced ataxia ([4]; 30 mg/kg p.o., second trial (January 2004)) was “more pronounced but still not significant”, the MK-801-induced other stereotypies ([4]; 30 mg/kg p.o., second trial and sum of both trials) was “significantly reversed” and the MK-801-induced ataxia ([4]; 30 mg/kg p.o., sum of both trials) was “only a slight reduction”.
